In patent publication US11452758B2, “Antimicrobial peptide derived from LL37 peptide and uses thereof” (INDUSTRY-ACADEMIC COOPERATION FOUNDATION, CHOSUN UNIVERSITY, priority 2018, dated 2022):
Where a SMILES comes first, the peptide text is derived from it.

Key:
A. baumannii #10 = assay type: cell-based, Acinetobacter baumannii; settings: A. baumannii #10, tolerance to antibiotics
Source text: (§1) To compare the antimicrobial activity among the peptides produced by the method of Example 1, the inventors of the present invention measured the minimal growth inhibitory concentration (MIC), which is minimum concentration of the peptide not allowing any […] of bacterial cells.
(§2) Specifically, the bacterial strains described in the following Table 2 were purchased and cultured to a mid-log phase in MHB (Mueller Hinton Broth) medium. Then, after dilution to bacterial cell concentration of 2×10^5 cells/50 μl, the cells were inoculated to a microtiter plate (NUNC, USA). Thereafter, LL37-1, LL37-2, LL37-3 or LL37-4 peptide which has been synthesized in Example 1 above was subjected to serial dilution, ½ times for each, in a 96-well plate. After adding the peptides in an amount of 50 μl to the cell plate, the cells were cultured for 18 hours at 37° C. By using a microtiter plate reader (Merck Elisa reader, Germany), the absorbance was measured at a wavelength of 600 nm to determine the MIC value of each bacterial strain. As a control group, LL37 as a mother peptide was used and subjected to the same process as above to determine the MIC value of each strain.

A. baumannii #11 = assay type: cell-based, Acinetobacter baumannii; settings: A. baumannii #11, tolerance to antibiotics
Source text: as §1, §2

A. baumannii #12 = assay type: cell-based, Acinetobacter baumannii; settings: A. baumannii #12, tolerance to antibiotics
Source text: as §1, §2

A. baumannii #13 = assay type: cell-based, Acinetobacter baumannii; settings: A. baumannii #13, tolerance to antibiotics
Source text: as §1, §2

A. baumannii #19 = assay type: cell-based, Acinetobacter baumannii; settings: A. baumannii #19, tolerance to antibiotics
Source text: as §1, §2

A. baumannii #2 = assay type: cell-based, Acinetobacter baumannii; settings: A. baumannii #2, tolerance to antibiotics
Source text: as §1, §2

A. baumannii #3 = assay type: cell-based, Acinetobacter baumannii; settings: A. baumannii #3, tolerance to antibiotics
Source text: as §1, §2

A. baumannii #4 = assay type: cell-based, Acinetobacter baumannii; settings: A. baumannii #4, tolerance to antibiotics
Source text: as §1, §2

A. baumannii #5 = assay type: cell-based, Acinetobacter baumannii; settings: A. baumannii #5, tolerance to antibiotics
Source text: as §1, §2

A. baumannii #8 = assay type: cell-based, Acinetobacter baumannii; settings: A. baumannii #8, tolerance to antibiotics
Source text: as §1, §2

A. baumannii #9 = assay type: cell-based, Acinetobacter baumannii; settings: A. baumannii #9, tolerance to antibiotics
Source text: as §1, §2

A. baumannii KCTC 2508 = assay type: cell-based, Acinetobacter baumannii; settings: A. baumannii KCTC 2508
Source text: as §1, §2

E. coli ATCC 25922 = assay type: cell-based, Escherichia coli; settings: E. coli ATCC 25922; MHB, 18 hours at 37° C.
Source text: as §1, §2

P. aeruginosa ATCC 27853 = assay type: cell-based, Pseudomonas aeruginosa; settings: P. aeruginosa ATCC 27853; MHB, 18 hours at 37° C.
Source text: as §1, §2

CC[C@H](C)[C@H](NC(=O)[C@H](CCCNC(=N)N)NC(=O)[C@H](CCC(N)=O)NC(=O)[C@@H](NC(=O)[C@@H](NC(=O)[C@H](CCCNC(=N)N)NC(=O)[C@H](CCCCN)NC(=O)[C@H](Cc1ccccc1)NC(=O)[C@H](CCCCN)NC(=O)[C@@H](N)CCCCN)[C@@H](C)CC)C(C)C)C(=O)N[C@@H](CCCCN)C(=O)N[C@@H](CC(=O)O)C(=O)N[C@@H](Cc1ccccc1)C(=O)N[C@@H](CC(C)C)C(=O)N[C@@H](CCCNC(=N)N)C(=O)N[C@@H](CC(N)=O)C(N)=O [LL37-2, KKFKRIVQRIKDFLRN-NH2] (H-KKFKRIVQRIKDFLRN-NH2)
16 µM: Minimal inhibitory concentration (E. coli ATCC 25922)
8 µM: Minimal inhibitory concentration (P. aeruginosa ATCC 27853)
4 µM: Minimal inhibitory concentration of antimicrobial peptide (A. baumannii KCTC 2508; Control (MIC values of Table 3, no added ions)) | Minimal inhibitory concentration (A. baumannii KCTC 2508; MHB, 18 hours at 37° C.)
2 µM: Minimal inhibitory concentration (A. baumannii #10) | Minimal inhibitory concentration (A. baumannii #11) | Minimal inhibitory concentration (A. baumannii #12) | Minimal inhibitory concentration (A. baumannii #13) | Minimal inhibitory concentration (A. baumannii #19) | Minimal inhibitory concentration (A. baumannii #2) | Minimal inhibitory concentration (A. baumannii #3) | Minimal inhibitory concentration (A. baumannii #4) | Minimal inhibitory concentration (A. baumannii #5) | Minimal inhibitory concentration (A. baumannii #8) | Minimal inhibitory concentration (A. baumannii #9)
